From ChEMBL document CHEMBL1137126, “Aza-boronic acids as non-beta-lactam inhibitors of AmpC-beta-lactamase” (Bioorg Med Chem Lett, 2004) come the findings set out here.

The target in one assay is Beta-lactamase (Escherichia coli K-12, UniProt P00811). Kind of assay: Apparent inhibition constant against Escherichia coli AmpC beta-lactamase.
Assay [1] has as its system Escherichia coli. Kind of assay: Minimum inhibitory concentration of compound against Escherichia coli derepressed.
Assay [2] has as its system Escherichia coli. Kind of assay: Minimum inhibitory concentration of compound against Escherichia coli K12AmpC-Ent.
The next assay deals with Enterobacter cloacae. Description: Minimum inhibitory concentration of compound against Enterobacter cloacae derepressed 12991 ED. The class given is functional.
The next assay deals with Pseudomonas aeruginosa. Kind of assay: Minimum inhibitory concentration of compound against Pseudomonas aeruginosa derepressed 88/98. The class given is functional.
The next assay has as its system Citrobacter freundii. Description: Minimum inhibitory concentration of compound against Citrobacter freundii derepressed 91/98-2. It counts as functional.

As usually defined, the pKi is the negative decadic logarithm of the Ki, by convention in mol/L. As usually defined, the MIC is the least concentration at which growth counts as inhibited.

Each structure is given as a SMILES string. pKi: −log10 of the molar value. In brackets after ≈: the same amount, converted by molar mass.

Beta-lactamase, sequence (P00811 whole entry): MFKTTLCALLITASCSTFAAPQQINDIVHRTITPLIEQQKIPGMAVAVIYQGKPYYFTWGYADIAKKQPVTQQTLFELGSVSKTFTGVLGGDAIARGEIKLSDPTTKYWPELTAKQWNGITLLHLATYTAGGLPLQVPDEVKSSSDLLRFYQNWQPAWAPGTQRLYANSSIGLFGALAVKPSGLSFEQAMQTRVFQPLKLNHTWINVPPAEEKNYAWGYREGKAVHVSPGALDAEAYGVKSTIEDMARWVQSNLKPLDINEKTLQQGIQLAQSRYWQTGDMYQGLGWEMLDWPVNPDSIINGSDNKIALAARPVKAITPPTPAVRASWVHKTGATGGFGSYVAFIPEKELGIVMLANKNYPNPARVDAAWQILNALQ

Regarding `OB(O)c1cccc(/N=N/c2ccc(O)cc2)c1`, at Beta-lactamase, the pKi was 6.15.
The same measure, in the same setting: the value for `OB(O)c1cccc(/N=N/c2ccc(/N=N/c3c(O)ccc4ccccc34)cc2O)c1` was 5.74; that for `OB(O)c1cccc(/N=N/c2c(O)cc(O)c3ccccc23)c1` was 6.35.
On the same count and under the same terms, the value for `OB(O)c1cccc(/N=N/c2cc(Cl)c(O)c(Cl)c2)c1` was 5.52; that for `OB(O)c1cccc(/N=N/c2ccccc2O)c1` was 5.46; that for `OB(O)c1cccc(/N=N/c2ccc(/N=N/c3c(O)cc(O)c4ccccc34)cc2O)c1` was 6.15.
On the same count and under the same terms, the value for `O=[N+]([O-])c1cccc(/N=N/c2cccc(B(O)O)c2)c1O` was 5.82; that for `OB(O)c1cccc(/N=N/c2c(O)ccc3ccccc23)c1` was 6.52; that for `Nc1cc(B(O)O)ccc1/N=N/c1cccc(B(O)O)c1` was 5.57.
Consider `O=S(=O)(O)c1cc(S(=O)(=O)c2cccc(/N=N/c3cccc(B(O)O)c3)c2)cs1`, for which the negative logarithm of the Ki (pKi) on Beta-lactamase was 5.70.
Take `OB(O)c1cccc(/N=N/c2ccc(O)c3ccccc23)c1`: on Beta-lactamase, the pKi was 6.05.
On the same count and under the same terms, the value for `O=S(=O)(O)c1cc(/N=N/c2cccc(B(O)O)c2)c(O)c2ccccc12` was 5.30.
The same measure, in the same setting: then `Cc1noc(C)c1/N=N/c1cccc(B(O)O)c1`, with 6.00.
Still for that read-out and setting: the value for `OB(O)c1cc(/N=N/c2ccc(Br)cc2)ccc1O` was 5.52.
With `CC(C)(O/N=C(\C(=O)N[C@@H]1C(=O)N2C(C(=O)[O-])=C(C[n+]3ccccc3)CS[C@H]12)c1csc(N)n1)C(=O)O` [CEFTAZIDIME], the MIC against Escherichia coli [1] was 128 µg/mL (≈ 234 µM); with Escherichia coli [2], 64 µg/mL (≈ 117 µM); in the assay on Enterobacter cloacae it was 256 µg/mL (≈ 468 µM); in the assay with Pseudomonas aeruginosa, 128 µg/mL (≈ 234 µM); against Citrobacter freundii it was 64 µg/mL (≈ 117 µM).
